Structures can show the parent of a compound that is named as a salt. Where two headings read alike, the source gives them in different places.
Tests used:
[1] = In vitro trial: drug release from extruded suppositories in 150 ml water at 37° C.; type: physicochemical; conditions: phenylephrine hydrochloride vs lignocaine hydrochloride, alone and together (FIGS. 6-8)
Method: Mixes for the in vivo and the in vitro trails were made by dissolving the required quantities of drug in water which was then added to the polymer and thoroughly mixed using a spatula. […] The resulting damp, spongy particles were squeezed together by hand to form a dough-like mixture. The mixes were extruded through a nozzle of a 50 ml plastic syringe to form a long rod (9 mm diameter). Immediately after, suppositories were made by cutting the rod into 3 cm length and were stored in an air-tight container prior to use.
Drug release rates were studied in four ways:
(i) release from suppositories containing 20 mg phenylephrine hydrochloride only (in duplicate).
(iii) release from suppositories containing both drugs in the above amounts (in triplicate).
The concentration of drug in the aliquot was immediately determined spectrophotometrically (q.v.) after which the aliquot sample was returned to the solution. […]
Analytical background effects (due to the polymer) were measured by repeating the spectrophotometric procedure using a suppository containing no drug. […]
The absorbences of the samples taken during the in vitro trial were measured on the spectrophotometer and the concentrations of the dissolved drugs determined by reference to the calibration curves.
Drug release rates were measured in the in vitro trials for suppositories containing each drug alone and both drugs together. […]

[2] = male beagle
Method: Four smaller pieces were randomly cut from the remainder and placed into weighed vials. Distilled water (10 ml) was added to each vial and the contents were allowed to dissolve overnight. Triplicate aliquots (0.1 ml) were removed for the determination of radioactivity as for plasma.
The evacuated suppository was separated from the faecal pellet and weighed. The sample was then homogenised with a known quantity of purified sand (sand to sample ratio, 2:1).
Four pieces of the sand/suppository mixture were placed in weighed vials. Distilled water (4 ml) was added to each vial and the contents were allowed to dissolve overnight. Unisolve 1 (10 ml) was added and the resulting translucent gel was mixed by vigorous shaking. The samples were assayed for radioactivity.
They were then re-weighed and the moisture content of the evacuated suppository was determined.

[3] = male beagle, rectal, dose 38.93 μCi

For `CCN(CC)CC(=O)Nc1c(C)cccc1C` [lignocaine hydrochloride], the “proportion of drug released, comparison of drugs” value [1] was “approximately the same”.

In the case of `CNC[C@H](O)c1cccc(O)c1` [phenylephrine hydrochloride], the “proportion of drug released, comparison of drugs” value [1] is reported as “approximately the same”.

For [^14 C]-lignocaine hydrochloride, the “% total administered dose in evacuated suppository” value [2] was 27.58%, the “radioactive dose remaining in evacuated suppository” value ([2]; dose 38.93 μCi) was 10.74 μCi and the “time of maximum plasma concentration of radioactivity” value (dog, rectal) was 8 h. For the same compound, the “maximum plasma concentration of radioactivity” value (dog, rectal, at 8 h) was 0.00295 %/ml of the administered radioactive dose, the “% total administered dose, liver” value (male beagle, 48 h) was 0.36% and the “% total administered dose, rectal contents” value (male beagle, 48 h) was 0.086%. For the same compound, the “% total administered dose, rectum” value (male beagle, 48 h) was 0.026%, the “cumulative % total administered dose, through liver” value (male beagle, 48 h) was 0.375% and the “cumulative % total administered dose, through rectal contents” value (male beagle, 48 h) was 0.487%. The “cumulative % total administered dose, through rectum” value (male beagle, 48 h) was 0.401%, the “cumulative % total administered dose, through urine and faeces” value (male beagle, 48 h) was 48.687% and the “total radioactivity recovered, bile” value (male beagle, 48 h) was 0.006 μCi. For the same compound, the “total radioactivity recovered, liver” value (male beagle, 48 h) was 0.14 μCi, the “total radioactivity recovered, rectal contents” value (male beagle, 48 h) was 0.03 μCi and the “total radioactivity recovered, rectum” value (male beagle, 48 h) was 0.01 μCi. The “total radioactivity recovered, urine and faeces” value (male beagle, 48 h) was 18.77 μCi, the “concentration of radioactivity in plasma” value (male beagle, rectal, 0 h) was 0 % administered radioactive dos and the “radioactive drug equivalents in plasma” value (male beagle, rectal, 0 h) was 0 μg equivalents/ml plasma. The “concentration of radioactivity in plasma” value (male beagle, rectal, 0.5 h) was 0.00081 % administered radioactive dos, the “radioactive drug equivalents in plasma” value (male beagle, rectal, 0.5 h) was 0.75 μg equivalents/ml plasma and the “concentration of radioactivity in plasma” value (male beagle, rectal, 1 h) was 0.0014 % administered radioactive dos. For the same compound, the “radioactive drug equivalents in plasma” value (male beagle, rectal, 1 h) was 1.33 μg equivalents/ml plasma, the “concentration of radioactivity in plasma” value (male beagle, rectal, 2 h) was 0.0022 % administered radioactive dos and the “radioactive drug equivalents in plasma” value (male beagle, rectal, 2 h) was 2.08 μg equivalents/ml plasma. For the same compound, the “concentration of radioactivity in plasma” value (male beagle, rectal, 4 h) was 0.00291 % administered radioactive dos, the “radioactive drug equivalents in plasma” value (male beagle, rectal, 4 h) was 2.72 μg equivalents/ml plasma and the “concentration of radioactivity in plasma” value (male beagle, rectal, 8 h) was 0.00295 % administered radioactive dos. For the same compound, the “radioactive drug equivalents in plasma” value (male beagle, rectal, 8 h) was 2.75 μg equivalents/ml plasma, the “concentration of radioactivity in plasma” value (male beagle, rectal, 24 h) was 0.00267 % administered radioactive dos and the “radioactive drug equivalents in plasma” value (male beagle, rectal, 24 h) was 2.49 μg equivalents/ml plasma. For the same compound, the “concentration of radioactivity in plasma” value (male beagle, rectal, 48 h) was 0.00062 % administered radioactive dos, the “radioactive drug equivalents in plasma” value (male beagle, rectal, 48 h) was 0.58 μg equivalents/ml plasma and the “total radioactivity excreted, total” value (male beagle, rectal, 48 h, dose 38.93 μCi) was 18.77 μCi. The “total radioactivity excreted, 0-24 h urine” value [3] was 13.45 μCi, the “total radioactivity excreted, 24-48 h urine” value [3] was 2.19 μCi and the “total radioactivity excreted, total faeces” value [3] was 3.13 μCi.
